From ChEMBL document CHEMBL1201862, “PubChem BioAssay data set” (2004) come the findings set out here.

Some test systems named below: OVCAR-4; SN12C; COLO 205; 786-0; SW-620; CAKI-1; MDA-MB-435; HOP-92; SK-OV-3; PC-3; SK-MEL-28; U-251; DMS-273; M19-MEL; DMS-114; SF-539; KM-20L2; XF498; DU-145; HOP-18.
What all share (test): DTP human tumour cell line panel, 48 h

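Grown in 96-well plates, cells were treated for 48 hours with each compound at five concentrations. Insufficient inhibition: endpoint recorded as highest concentration tested. Abbreviation: GI50, concentration required for 50% inhibition of growth.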 The source made the active and inactive calls. Rule as the data show it: active = GI50 up to about 1.1 µM and inactive = higher.

As to `COP(=O)(OC)C(N)CCSC` (stereo unspecified), the GI50 in the assay with OVCAR-4, with SN12C, in the assay on COLO 205, in the assay on 786-0, in the assay on SW-620 and with CAKI-1 was > 100 µM (inactive) each time. In addition, the GI50 with MDA-MB-435, in the assay on HOP-92, in the assay on SK-OV-3, with PC-3, with SK-MEL-28 and in the assay on U-251 was > 100 µM (inactive) in each case.

On to `Cn1cc(C(=O)/C(Cl)=C(\Cl)C(=O)O)c2ccccc21`, for which the GI50 with DMS-273, in the assay on OVCAR-4, with M19-MEL, in the assay on 786-0, with SW-620 and in the assay on CAKI-1 was > 100 µM (inactive) throughout. Moreover, the GI50 in the assay on DMS-114, in the assay on SK-OV-3, with SF-539, with KM-20L2, with XF498 and with SK-MEL-28 was > 100 µM (inactive) throughout. The GI50 in the assay on U-251 was > 100 µM (inactive).

In the case of `COc1cc(Nc2nc3cc(C(F)(F)F)ccc3n3cccc23)cc(OC)c1OC`, the GI50 in the assay with SN12C is 32.4 µM (inactive); in the assay with COLO 205, > 100 µM (inactive); with SW-620, > 100 µM (inactive); in the assay with CAKI-1, > 100 µM (inactive); in the assay on MDA-MB-435, 9.46 µM (inactive); in the assay with HOP-92, > 100 µM (inactive). Further, the GI50 in the assay on SK-OV-3, in the assay with SF-539, in the assay on DU-145, with PC-3, in the assay with SK-MEL-28 and in the assay with U-251 was > 100 µM (inactive) throughout.

With `CCCn1c(CN(Cc2nc3ccccc3n2CCC)Cc2nc3ccccc3n2CCC)nc2ccccc21`, the GI50 was 3.73 µM (inactive) in the assay on OVCAR-4; 2.01 µM (inactive) in the assay on SN12C; 2.81 µM (inactive) with COLO 205; 5.11 µM (inactive) with SW-620; 2.81 µM (inactive) with CAKI-1; 3.27 µM (inactive) in the assay on MDA-MB-435. The GI50 in the assay on HOP-92 is 3.03 µM (inactive); with SK-OV-3 it was 41.5 µM (inactive); in the assay on SF-539 it was 4.2 µM (inactive); with DU-145, 7.83 µM (inactive); in the assay with PC-3 it was 3.31 µM (inactive); with SK-MEL-28, 10.7 µM (inactive). For the same molecule, the GI50 in the assay with U-251 was 3.97 µM (inactive).

For `CS/C(=N\S(=O)(=O)c1ccc(Cl)cc1)NCCN/C(=N/S(=O)(=O)c1ccc(Cl)cc1)SC`, the GI50 with OVCAR-4 was 2.3 µM (inactive); in the assay with SN12C it was > 100 µM (inactive); with COLO 205, > 100 µM (inactive); with 786-0, 24.8 µM (inactive); in the assay on SW-620, > 100 µM (inactive); in the assay with CAKI-1 it was > 100 µM (inactive). For the same molecule, the GI50 is > 100 µM (inactive) with MDA-MB-435; 14.2 µM (inactive) in the assay with HOP-92; 23.6 µM (inactive) in the assay with SK-OV-3; 61.4 µM (inactive) in the assay on SF-539; > 100 µM (inactive) with DU-145; 8.43 µM (inactive) with PC-3. Further, the figures for the GI50 with SK-MEL-28 and in the assay with U-251 were > 100 µM (inactive) and 18 µM (inactive), respectively.

On to `COc1cccc(N/C(C)=C2/CCOC2=O)c1`, for which the GI50 in the assay on OVCAR-4, in the assay with SN12C, in the assay on COLO 205, in the assay with SW-620, with CAKI-1 and with MDA-MB-435 was > 10 µM (inactive) each time. The GI50 in the assay on SK-OV-3, in the assay with SF-539, in the assay on DU-145, in the assay with PC-3, with SK-MEL-28 and in the assay on U-251 was > 10 µM (inactive) in each case.

Turning to `O=C1/C(=C\c2cccc(Oc3ccccc3)c2)SC(c2ccccc2)N1c1cccc([N+](=O)[O-])c1` (stereo unspecified), the GI50 is 70.3 µM (inactive) in the assay on OVCAR-4; > 100 µM (inactive) in the assay with SN12C; > 100 µM (inactive) in the assay on COLO 205; > 100 µM (inactive) in the assay on 786-0; 56.4 µM (inactive) with SW-620; > 100 µM (inactive) in the assay on CAKI-1. Besides, the GI50 in the assay with MDA-MB-435 is 41.6 µM (inactive); with HOP-92, 45.7 µM (inactive); in the assay with SK-OV-3 it was > 100 µM (inactive); in the assay with SF-539 it was 25.1 µM (inactive); in the assay with DU-145, > 100 µM (inactive); in the assay on SK-MEL-28 it was > 100 µM (inactive). Moreover, the GI50 in the assay on U-251 is 36.7 µM (inactive).

Consider `Cc1sc(Cc2ccccc2)nc1-c1ccc(N)cc1`, for which the GI50 was 12.7 µM (inactive) with OVCAR-4; 21.1 µM (inactive) in the assay with SN12C; 23.1 µM (inactive) with COLO 205; 23.7 µM (inactive) in the assay with SW-620; 24 µM (inactive) in the assay with CAKI-1; 17.7 µM (inactive) in the assay with MDA-MB-435. The GI50 was 13.8 µM (inactive) with HOP-92, 29.9 µM (inactive) in the assay on PC-3, 30.9 µM (inactive) in the assay on SK-MEL-28 and 26.6 µM (inactive) in the assay on U-251.

As to `CC(=O)Nc1cc2c(cc1O)CC[C@@H]1[C@@H]2CC[C@]2(C)[C@@H](O)CC[C@@H]12`, the GI50 with OVCAR-4 was > 100 µM (inactive); in the assay with COLO 205, 30 µM (inactive); with 786-0 it was 63 µM (inactive); in the assay with SW-620 it was 27.7 µM (inactive); with CAKI-1 it was 84.1 µM (inactive); in the assay with MDA-MB-435, 19.7 µM (inactive). The GI50 was 41 µM (inactive) in the assay with HOP-92; > 100 µM (inactive) with SK-OV-3; 34.5 µM (inactive) in the assay with SF-539; 35.5 µM (inactive) in the assay on PC-3; 63.4 µM (inactive) in the assay with SK-MEL-28; 42 µM (inactive) in the assay with U-251.

Consider `O=S1(=O)CS(=O)(=O)OCCCO1`, for which the GI50 was > 100 µM (inactive) in the assay with OVCAR-4; > 100 µM (inactive) in the assay with SN12C; > 100 µM (inactive) in the assay on COLO 205; > 100 µM (inactive) in the assay with 786-0; > 100 µM (inactive) in the assay on SW-620; 24.3 µM (inactive) with CAKI-1. Besides, the GI50 was > 100 µM (inactive) in the assay on MDA-MB-435; > 100 µM (inactive) with HOP-92; > 100 µM (inactive) in the assay with SK-OV-3; 54.1 µM (inactive) in the assay on SF-539; > 100 µM (inactive) in the assay with DU-145; > 100 µM (inactive) in the assay on PC-3. The GI50 in the assay on SK-MEL-28 and with U-251 was > 100 µM (inactive) throughout.

For the molecule `C#C[C@]1(O)[C@@H](CO)O[C@@H](n2ccc(=O)[nH]c2=O)[C@@H]1O`, the GI50 is 0.43 µM (active) in the assay with OVCAR-4; < 0.0184 µM (active) with SN12C; < 0.01 µM (active) in the assay with COLO 205; < 0.0121 µM (active) with 786-0; 0.082 µM (active) in the assay with SW-620; < 0.0161 µM (active) in the assay with CAKI-1. In addition, the GI50 is 0.173 µM (active) with MDA-MB-435; 0.132 µM (active) in the assay on HOP-92; 1.97 µM (inactive) with SK-OV-3; 0.0117 µM (active) with SF-539; 0.0391 µM (active) with DU-145; 0.25 µM (active) in the assay on PC-3. Also, the GI50 with SK-MEL-28 was 0.791 µM (active); with U-251 it was 0.121 µM (active).

As for `CC1(C)CCCC2(C)[C@@H]1CC[C@]13C[C@](C)(CC[C@@H]21)[C@@H]3CO` (stereo partly specified), the GI50 with DMS-273, in the assay on OVCAR-4, in the assay with SN12C, with M19-MEL, with COLO 205 and with SW-620 was > 100 µM (inactive) each time. The GI50 in the assay with CAKI-1, in the assay with DMS-114, in the assay on HOP-92, with SK-OV-3, in the assay with SF-539 and in the assay with KM-20L2 was > 100 µM (inactive) each time. The GI50 in the assay with XF498, with SK-MEL-28 and in the assay on U-251 was > 100 µM (inactive) each time.

With `CCCSc1ccc2[nH]c(N3C(=O)/C(=C/c4cc(OC)c(OC)c(OC)c4)N=C3c3ccccc3)cc2c1`, the GI50 in the assay on OVCAR-4 was 14.5 µM (inactive); in the assay with SN12C it was 16.4 µM (inactive); with COLO 205, 8.43 µM (inactive); with 786-0, 3.24 µM (inactive); in the assay on SW-620, 10.9 µM (inactive); in the assay on CAKI-1, 11.9 µM (inactive). In addition, the GI50 is 4.03 µM (inactive) in the assay with MDA-MB-435; 13.9 µM (inactive) with HOP-92; 1.6 µM (inactive) with SK-OV-3; 1.72 µM (inactive) with SF-539; 10.1 µM (inactive) with DU-145; 16.1 µM (inactive) in the assay on PC-3. Moreover, the GI50 with SK-MEL-28 was 12.9 µM (inactive); in the assay with U-251 it was 17.8 µM (inactive).

With `COc1cc(Nc2c3ccccc3nc3ccccc23)ccc1NS(C)(=O)=O`, the GI50 in the assay on OVCAR-4 was 3.61 µM (inactive); with SN12C it was 2.58 µM (inactive); with M19-MEL, 5.93 µM (inactive); in the assay with COLO 205 it was 3.48 µM (inactive); in the assay on SW-620 it was 2.61 µM (inactive); with CAKI-1, 3.02 µM (inactive). Also, the GI50 in the assay with HOP-18 is 13.3 µM (inactive); in the assay with DMS-114 it was 6.58 µM (inactive); with SK-OV-3 it was 14.7 µM (inactive); in the assay with SF-539, 4.41 µM (inactive); in the assay with KM-20L2, 4.46 µM (inactive); with SK-MEL-28 it was 7.52 µM (inactive). In addition, the GI50 with U-251 was 4.59 µM (inactive).

In the case of `O=C1C=C[C@@H](COC2OC(CO)C(O)C(O)C2O)O1` (stereo partly specified), the GI50 in the assay on DMS-273 is 14.1 µM (inactive); in the assay on OVCAR-4, 19 µM (inactive); with SN12C, 5.93 µM (inactive); with M19-MEL, 12.8 µM (inactive); with COLO 205 it was 6.98 µM (inactive); in the assay with SW-620, 3.78 µM (inactive). Besides, the GI50 was 17.9 µM (inactive) with CAKI-1; 68.2 µM (inactive) in the assay with HOP-18; 14.1 µM (inactive) in the assay on DMS-114; 20.5 µM (inactive) with HOP-92; 73.6 µM (inactive) in the assay with SK-OV-3; 5.6 µM (inactive) in the assay with SF-539. Moreover, the values for the GI50 in the assay on XF498, in the assay on SK-MEL-28 and in the assay on U-251 were 16.6 µM (inactive), > 100 µM (inactive) and 15.7 µM (inactive), respectively.
